Results taken from patent US8350048B2, “Amide compounds as boosters of antivirals” (Janssen R&D Ireland, priority 2007, dated 2013).

Legend:
[1] = test system: wild-type HIV-1IIIB strain; assay: Antiviral activity, MT4 LTR-EGFP cellular assay; type: cell-based; settings: Human immunodeficiency virus 1, 72 h; wild-type HIV-1 IIIB, MT4 LTR-EGFP cells, three days after infection; read-out: Antiviral activity IIIB (pEC50) (converted)
Protocol: (§1) Assay 1 &2: Antiviral Activity/Toxicity
The compounds of the present invention were tested for antiviral activity in a cellular assay, which was performed according to the following procedure.
The human T-cell line MT4 is engineered with Green Fluorescent Protein (GFP) and an HIV-specific promoter, HIV-1 long terminal repeat (LTR). This cell line is designated MT4 LTR-EGFP, and can be used for the in vitro evaluation of anti-HIV activity of investigational compounds. In HIV-1 infected cells, the Tat protein is produced which upregulates the LTR promotor and finally leads to stimulation of the GFP reporter production, allowing measuring ongoing HIV-infection fluorometrically.
(§2) The ratio of CC50 to EC50 is defined as the selectivity index (SI) and is an indication of the selectivity of the anti-HIV activity of the inhibitor. The ultimate monitoring of HIV-1 infection and cytotoxicity is done using a scanning microscope. Image analysis allows very sensitive detection of viral infection. Measurements are done before cell necrosis, which usually takes place about five days after infection, in particular measurements are performed three days after infection.
(§3) A pEC50 value corresponds to −log10(EC50). A pCC50 value corresponds to −log10(CC50).

[2] = Toxicity, mock-infected MT4 CMV-EGFP cells; type: cell-based, human; settings: human, mock-infected MT4 CMV-EGFP cells; read-out: Toxicity MT4 (pCC50) (converted)
Excerpt: as §1
Analogously, MT4 cells are engineered with GFP and the constitutional cytomegalovirus (CMV) promotor. […] Cytotoxic investigational compounds reduce GFP levels of mock-infected MT4 CMV-EGFP cells.
as §2, §3

[3] = Metabolic stability of test compounds (HLM15'); type: in vitro ADME, human; settings: pH 7.4; human liver microsomes 1 mg/ml, 5 μM test compound, 15 min; read-out: Metabolic stability (HLM, % recovery after 15')
Excerpt: Human liver tissue is rinsed in ice-cold 0.1 M Tris-HCl (pH 7.4) buffer to wash excess blood. Tissue is then blotted dry, weighed and chopped coarsely using surgical scissors. The tissue pieces are homogenized in 3 volumes of ice-cold 0.1 M phosphate buffer (pH 7.4) using either a Potter-S (Braun, Italy) equipped with a Teflon pestle or a Sorvall Omni-Mix homogenizer, for 7×10 sec. In both cases, the vessel is kept in/on ice during the homogenization process. Tissue homogenates are centrifuged at 9000×g for 20 min at 4° C. using a Sorvall centrifuge or Beckman Ultracentrifuge. The resulting supernatant can be stored at −80° C. and is designated ‘S9’. The S9 fraction is centrifuged at 100,000×g for 60 min at 4° C. using a Beckman ultracentrifuge. The resulting supernatant is carefully aspirated, aliquoted and designated ‘cytosol’. The pellet is re-suspended in 0.1 M phosphate buffer (pH 7.4) in a final volume of 1 ml per 0.5 g original tissue weight and designated ‘microsomes’. All sub-cellular fractions are aliquoted, immediately frozen in liquid nitrogen and stored at −80° C. until use.
Heat-inactivated (10 min at 95° C.) ‘S9’ or microsomes were used for blank experiments. […] The reaction was incubated for 0 or 15 min. Next, the reaction was stopped by addition of 2 volumes of DMSO (or acetonitrile). Samples were centrifuged (10 min, 900×g) and analyzed by LC-MS.

CYP3A4 [4] = molecular target: T1, CYP3A4 (Homo sapiens, UniProt P08684); assay: CYP450 inhibition CDNA-CYP3A4-BFC; settings: human, E. coli expressed CYP3A4, pH 7.4, probe BFC 150 μM
Excerpt: (§4) Assay 4: CYP450 Inhibition

CYP3A4 [5] = molecular target: T1, CYP3A4; assay: CYP450 inhibition CDNA-CYP3A4-BQ; settings: human, E. coli expressed CYP3A4, pH 7.4, probe BQ 60 μM
Excerpt: as §4

CYP2C9 = CYP2C9 (Homo sapiens, UniProt P11712); assay: in vitro; settings: human, pH 7.4
Excerpt: as §4

CYP3A4 [6] = molecular target: T1, CYP3A4; assay: in vitro; settings: human, pH 7.4
Excerpt: as §4

CYP2D6 = CYP2D6 (Homo sapiens, UniProt P10635); assay: in vitro; settings: pH 7.4
Protocol: (§5) Inhibition of the metabolism of test compounds by different CYP P450 isoenzymes was determined using E. coli expressed proteins (3A4, 2C9, 2D6, 1A2, and 2C19) that convert their specific substrates into a fluorescent molecule (Table 6). This fluorescent molecule was measured using a fluorescent plate reader (Victor2 (Wallac) or Fluoroskan (Labsystems)). […] CYP P450 enzymes were prepared in house or commercially bought and stored at −80° C.
(§6) The assay was performed in black 96 well Costar plates. Test compounds were added to a CYP P450 enzyme solution in the presence of an NADPH generating system. After 5 min of preincubation at 37° C., the freshly prepared, phosphate buffered (pH 7.4) substrate solution was added. Known CYP P450 inhibitors were used as positive controls, negative controls were run without CYP P450 enzyme. […] Reaction mixtures were incubated at 37° C. for 30 min (CYP3A4-BFC), 30 min (CYP3A4-BQ), 10 min (CYP3A4-DBF), 15 min (CYP1A2-CEC), 30 min (CYP2C9-MFC, CYP2C19-CEC), or 45 min (CYP2D6-AMMC), respectively. Then, the reaction was stopped by the addition of 200 μl acetonitrile, and the fluorescent signal was detected.
(§7) Calculation of CYP P450 isoenzyme inhibition (% inh.):
(§8) % activity=(100/(average positive control−average negative control))×(average sample−average negative control)

CYP1A2 = molecular target: T2, CYP1A2 (Homo sapiens, UniProt P05177); assay: in vitro; settings: E. coli expressed CYP1A2, pH 7.4, probe CEC 5 μM
T2 sequence (P05177 1-516): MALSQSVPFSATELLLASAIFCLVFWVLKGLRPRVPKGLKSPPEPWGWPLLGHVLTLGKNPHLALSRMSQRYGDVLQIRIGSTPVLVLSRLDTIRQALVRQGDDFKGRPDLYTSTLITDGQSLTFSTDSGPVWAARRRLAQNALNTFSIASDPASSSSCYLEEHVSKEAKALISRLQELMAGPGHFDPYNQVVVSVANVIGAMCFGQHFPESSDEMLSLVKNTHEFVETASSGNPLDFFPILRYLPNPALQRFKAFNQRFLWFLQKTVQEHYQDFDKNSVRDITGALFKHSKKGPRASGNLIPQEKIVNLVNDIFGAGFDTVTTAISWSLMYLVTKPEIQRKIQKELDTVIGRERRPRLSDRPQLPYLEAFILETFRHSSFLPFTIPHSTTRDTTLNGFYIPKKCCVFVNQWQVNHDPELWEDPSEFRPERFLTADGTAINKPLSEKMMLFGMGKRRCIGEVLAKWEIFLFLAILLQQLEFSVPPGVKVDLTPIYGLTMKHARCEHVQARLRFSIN
Protocol: as §5, §6, §7, §8

CYP2C19 = CYP2C19 (Homo sapiens, UniProt P33261); assay: in vitro; settings: E. coli expressed CYP2C19, pH 7.4, probe CEC 25 μM
Chain of CYP2C19 (P33261 whole entry): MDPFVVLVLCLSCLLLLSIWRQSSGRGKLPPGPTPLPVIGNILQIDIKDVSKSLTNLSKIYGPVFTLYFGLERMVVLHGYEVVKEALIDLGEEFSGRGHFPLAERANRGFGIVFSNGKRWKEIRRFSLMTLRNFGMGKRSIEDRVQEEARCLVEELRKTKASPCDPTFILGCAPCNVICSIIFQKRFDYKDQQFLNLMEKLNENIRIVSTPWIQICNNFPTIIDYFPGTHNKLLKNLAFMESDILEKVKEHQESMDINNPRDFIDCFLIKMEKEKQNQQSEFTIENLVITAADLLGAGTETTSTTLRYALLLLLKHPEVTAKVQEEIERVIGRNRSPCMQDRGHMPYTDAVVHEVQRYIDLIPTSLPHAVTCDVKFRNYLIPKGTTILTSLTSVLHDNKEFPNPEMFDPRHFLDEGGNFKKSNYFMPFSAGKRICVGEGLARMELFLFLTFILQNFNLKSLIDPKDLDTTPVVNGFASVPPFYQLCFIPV
Protocol: as §5, §6, §7, §8

T1 sequence (P08684 whole entry): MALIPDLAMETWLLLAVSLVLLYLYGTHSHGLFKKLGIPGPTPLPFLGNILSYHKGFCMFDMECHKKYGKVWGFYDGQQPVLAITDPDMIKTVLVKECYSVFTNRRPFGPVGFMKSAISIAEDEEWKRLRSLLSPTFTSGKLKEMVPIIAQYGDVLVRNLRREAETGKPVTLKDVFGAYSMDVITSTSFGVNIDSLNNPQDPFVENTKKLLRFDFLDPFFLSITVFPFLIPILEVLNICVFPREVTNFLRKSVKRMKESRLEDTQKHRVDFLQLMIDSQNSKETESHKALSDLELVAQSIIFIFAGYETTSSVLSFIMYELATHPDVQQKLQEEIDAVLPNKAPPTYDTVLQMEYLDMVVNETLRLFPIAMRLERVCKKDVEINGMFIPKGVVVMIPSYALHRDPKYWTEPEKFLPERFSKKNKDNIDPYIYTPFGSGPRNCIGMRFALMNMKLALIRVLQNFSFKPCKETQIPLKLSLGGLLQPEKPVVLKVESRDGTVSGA
Chain of CYP2D6 (P10635 whole entry): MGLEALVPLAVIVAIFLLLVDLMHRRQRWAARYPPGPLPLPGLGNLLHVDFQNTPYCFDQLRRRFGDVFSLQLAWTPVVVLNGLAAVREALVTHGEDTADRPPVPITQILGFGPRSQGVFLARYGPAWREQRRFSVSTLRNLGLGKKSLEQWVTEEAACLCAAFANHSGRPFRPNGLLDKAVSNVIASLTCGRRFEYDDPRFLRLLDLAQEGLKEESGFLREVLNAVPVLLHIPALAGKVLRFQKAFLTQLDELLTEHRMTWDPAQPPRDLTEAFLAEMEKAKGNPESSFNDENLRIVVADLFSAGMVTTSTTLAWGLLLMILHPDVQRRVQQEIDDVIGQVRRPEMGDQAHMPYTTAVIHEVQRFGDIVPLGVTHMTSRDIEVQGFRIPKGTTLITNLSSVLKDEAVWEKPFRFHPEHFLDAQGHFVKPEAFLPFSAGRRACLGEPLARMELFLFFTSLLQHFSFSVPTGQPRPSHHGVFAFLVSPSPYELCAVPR
Chain of CYP2C9 (P11712 whole entry): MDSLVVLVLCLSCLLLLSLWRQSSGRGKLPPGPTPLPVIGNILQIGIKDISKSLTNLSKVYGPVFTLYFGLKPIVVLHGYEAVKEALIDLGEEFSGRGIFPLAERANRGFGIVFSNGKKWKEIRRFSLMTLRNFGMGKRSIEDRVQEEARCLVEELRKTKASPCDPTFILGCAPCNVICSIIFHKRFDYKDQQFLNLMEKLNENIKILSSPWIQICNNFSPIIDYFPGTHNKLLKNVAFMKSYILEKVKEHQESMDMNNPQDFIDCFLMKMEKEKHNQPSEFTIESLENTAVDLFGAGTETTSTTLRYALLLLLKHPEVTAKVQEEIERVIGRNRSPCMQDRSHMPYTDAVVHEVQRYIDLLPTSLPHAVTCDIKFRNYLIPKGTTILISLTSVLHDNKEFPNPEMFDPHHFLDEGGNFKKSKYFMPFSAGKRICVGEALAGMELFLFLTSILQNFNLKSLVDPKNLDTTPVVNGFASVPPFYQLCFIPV

Structure (SMILES)	EC50 [1]	recovery at 15 min, 5 μM [3]	inhibition at 30 min, 10 μM (CYP3A4 [4])	inhibition at 30 min, 10 μM (CYP3A4 [5])	inhibition at 30 min, 10 μM (CYP2C9)	inhibition at 10 min, 10 μM (CYP3A4 [6])	inhibition at 45 min, 10 μM (CYP2D6)	inhibition at 15 min, 10 μM (CYP1A2)	inhibition at 30 min, 10 μM (CYP2C19)	CC50 at 3 days [2]
CC(C)CN(C[C@@H](O)[C@H](Cc1ccccc1)NC(=O)OCc1cncs1)C(=O)c1ccc2nc(N)sc2c1 [Compound C6, Thiazol-5-ylmethyl (2S,3R)-4-(2-amino-N-isobutylbenzo[d]thiazole-6-carboxamido)-3-hydroxy-1-phenylbutan-2-ylcarbamate]	75.9 µM	70%	76%	85%	99%	94%	83%	36%	94%	> 93.3 µM
CC(C)CN(C[C@@H](O)[C@H](Cc1ccccc1)NC(=O)OCc1cncs1)C(=O)c1ccc2ncn(C)c2c1 [Compound C8, Thiazol-5-ylmethyl (2S,3R)-3-hydroxy-4-(N-isobutyl-1-methyl-1H-benzo[d]-imidazole-6-carboxamido)-1-phenylbutan-2-ylcarbamate]	> 100 µM	57%	81%	72%	92%	93%	12%	4%	75%	> 100 µM
CCN(C)c1nc2ccc(C(=O)N(CC(C)C)C[C@@H](O)[C@H](Cc3ccccc3)NC(=O)OCc3ccncc3)cc2o1 [Compound C10, Pyridin-4-ylmethyl (2S,3R)-4-(2-(ethyl(methyl)amino)-N-isobutylbenzo[d]-oxazole-6-carboxamido)-3-hydroxy-1-phenylbutan-2-ylcarbamate]	49 µM	13%	91%	71%	93%	95%	99%	18%	70%	46.8 µM
CC(C)CN(C[C@@H](O)[C@H](Cc1ccccc1)NC(=O)OCc1cncs1)C(=O)c1ccc2nc(N3CCN(C)CC3)oc2c1 [Compound C15, Thiazol-5-ylmethyl (2S,3R)-3-hydroxy-4-(N-isobutyl-2-(4-methylpiperazin-1-yl)benzo[d]oxazole-6-carboxamido)-1-phenylbutan-2-ylcarbamate]	> 100 µM	25%	98%	79%	96%	93%	97%	18%	67%	> 100 µM

More lines, main results first:

EC50 [1]	recovery at 15 min, 5 μM [3]	inhibition at 30 min, 10 μM (CYP3A4 [4])	inhibition at 30 min, 10 μM (CYP3A4 [5])	inhibition at 30 min, 10 μM (CYP2C9)	inhibition at 10 min, 10 μM (CYP3A4 [6])	inhibition at 45 min, 10 μM (CYP2D6)	inhibition at 15 min, 10 μM (CYP1A2)	inhibition at 30 min, 10 μM (CYP2C19)	Structure (SMILES)	CC50 at 3 days [2]
> 100 µM	59%	93%	80%	34%	91%	89%	0%	36%	CC(C)CN(C[C@@H](O)[C@H](Cc1ccccc1)NC(=O)OCc1cncs1)C(=O)c1ccc2nc(NCCN(C)C)oc2c1 [Compound C16, Thiazol-5-ylmethyl (2S,3R)-4-(2-(2-(dimethylamino)ethylamino)-N-isobutyl-benzo[d]oxazole-6-carboxamido)-3-hydroxy-1-phenylbutan-2-ylcarbamate]	> 100 µM
> 100 µM	58%	90%	77%	99%	94%	32%	6%	97%	CCN(C[C@@H](O)[C@H](Cc1ccccc1)NC(=O)OCc1cncs1)C(=O)c1ccc2nc(N(C)CC)oc2c1 [Compound C29, Thiazol-5-ylmethyl (2S,3R)-4-(N-ethyl-2-(ethyl(methyl)amino)benzo[d]-oxazole-6-carboxamido)-3-hydroxy-1-phenylbutan-2-ylcarbamate]	81.3 µM
60.3 µM	57%	96%	76%	96%	96%	59%	7%	101%	C#CCN(C[C@@H](O)[C@H](Cc1ccccc1)NC(=O)OCc1cncs1)C(=O)c1ccc2nc(N(C)CC)oc2c1 [Compound C35, Thiazol-5-ylmethyl (2S,3R)-4-(2-(ethyl(methyl)amino)-N-(prop-2-ynyl)benzo[d]oxazole-6-carboxamido)-3-hydroxy-1-phenylbutan-2-ylcarbamate]	75.9 µM
> 100 µM	67%	95%	76%	93%	92%	77%	7%	81%	CC(C)CN(C[C@@H](O)[C@H](Cc1ccccc1)NC(=O)OCc1cncs1)C(=O)c1ccc2ncoc2c1 [Compound C38, Thiazol-5-ylmethyl (2S,3R)-3-hydroxy-4-(N-isobutylbenzo[d]oxazole-6-carboxamido)-1-phenylbutan-2-ylcarbamate]	> 100 µM
> 100 µM	60%	94%	74%	89%	91%	56%	0%	79%	Cc1nc2ccc(C(=O)N(CC(C)C)C[C@@H](O)[C@H](Cc3ccccc3)NC(=O)OCc3cncs3)cc2o1 [Compound C40, Thiazol-5-ylmethyl (2S,3R)-3-hydroxy-4-(N-isobutyl-2-methylbenzo[d]-oxazole-6-carboxamido)-1-phenylbutan-2-ylcarbamate]	> 100 µM
